Test results taken from patent US20230150953A1, “SUBSTITUTED ISOPHTHALIC ACID DIAMIDES” (Bayer Aktiengesellschaft, priority 2020, published 2023).

Experiments:
Type in all cases: in vivo
[1] = test system: ECHCG Echinochloa crus-galli; test: Post-emergence herbicidal action against harmful plants; conditions: one-leaf stage, assessed visually after about 3 weeks vs untreated controls
From the text: (§1) The abbreviations used for the harmful plants mean: • ABUTH Abutilon theophrasti ALOMY Alopecurus myosuroides • AVEFA Avena fatua AMARE Amaranthus retroflexus • CYPES Cyperus esculentus DIGSA Digitaria sanguinalis • ECHCG Echinochloa crus-galli HORMU Hordeum murinum • LOLMU Lolium multiflorum LOLRI Lolium rigidum • MATIN Matricaria inodora PHBPU Pharbitis purpurea • POLCO Polygonum convolvulus SETVI Setaria viridis • STEME Stellaria media VERPE Veronica persica • VIOTR Viola tricolor 2. Post-Emergence Herbicidal Action Against Harmful Plants Seeds of monocotyledonous and dicotyledonous weed and crop plants are laid out in sandy loam soil in wood-fiber pots, covered with soil and cultivated in a greenhouse under good growth conditions. 2 to 3 weeks after sowing, the test plants are treated at the one-leaf stage. The compounds of the invention, formulated in the form of wettable powders (WP) or as emulsion concentrates (EC), are then sprayed onto the green parts of the plants in the form of an aqueous suspension or emulsion at a water application rate equivalent to 600 to 800 l/ha, with addition of 0.2% wetting agent. After the test plants have been left to stand in the greenhouse under optimal growth conditions for about 3 weeks, the action of the preparations is assessed visually in comparison to untreated controls (herbicidal action in percent (%): 100% activity=the plants have died, 0% activity=like control plants). […] The tables below illustrate, in an illustrative manner, the post-emergence herbicidal action of the compounds of the invention, the herbicidal activity being stated in percent.

[2] = test system: AMARE Amaranthus retroflexus; test: as above; conditions: one-leaf stage, assessed visually after about 3 weeks vs untreated controls
From the text: as §1

[3] = test system: ALOMY Alopecurus myosuroides; test: as above; conditions: one-leaf stage, assessed visually after about 3 weeks vs untreated controls
From the text: as §1

[4] = test system: ECHCG Echinochloa crus-galli; test: Pre-emergence herbicidal action against harmful plants; conditions: scored visually after 3 weeks vs untreated controls
From the text: (§2) The abbreviations used for the harmful plants mean: • ABUTH Abutilon theophrasti ALOMY Alopecurus myosuroides • AVEFA Avena fatua AMARE Amaranthus retroflexus • CYPES Cyperus esculentus DIGSA Digitaria sanguinalis • ECHCG Echinochloa crus-galli HORMU Hordeum murinum • LOLMU Lolium multiflorum LOLRI Lolium rigidum • MATIN Matricaria inodora PHBPU Pharbitis purpurea • POLCO Polygonum convolvulus SETVI Setaria viridis • STEME Stellaria media VERPE Veronica persica • VIOTR Viola tricolor 1. Pre-Emergence Herbicidal Action Against Harmful Plants Seeds of monocotyledonous and dicotyledonous weed plants and crop plants are laid out in sandy loam soil in wood-fiber pots and covered with soil. The compounds of the invention, formulated in the form of wettable powders (WP) or as emulsion concentrates (EC), are then applied to the surface of the covering soil in the form of an aqueous suspension or emulsion at a water application rate equivalent to 600 to 800 l/ha, with addition of 0.2% wetting agent. After the treatment, the pots are placed in a greenhouse and kept under good growth conditions for the trial plants. The damage to the test plants is scored visually after a test period of 3 weeks by comparison with untreated controls (herbicidal activity in percent (%): 100% activity=the plants have died, 0% activity=like control plants). […] The tables below illustrate, in an illustrative manner, the post-emergence herbicidal action of the compounds of the invention, the herbicidal activity being stated in percent.

SETVI Setaria viridis [5] = test: as above; conditions: scored visually after 3 weeks vs untreated controls
From the text: as §2

[6] = test system: AMARE Amaranthus retroflexus; test: as above; conditions: scored visually after 3 weeks vs untreated controls
From the text: as §2

MATIN Matricaria inodora [7] = test: as above; conditions: scored visually after 3 weeks vs untreated controls
From the text: as §2

[8] = test system: POLCO Polygonum convolvulus; test: as above; conditions: 80 g/ha, scored visually after 3 weeks vs untreated controls
From the text: as §2

[9] = test system: ABUTH Abutilon theophrasti; test: as above; conditions: scored visually after 3 weeks vs untreated controls
From the text: as §2

AVEFA Avena fatua = test: as above; conditions: scored visually after 3 weeks vs untreated controls
From the text: as §2

[10] = test system: ALOMY Alopecurus myosuroides; test: as above; conditions: scored visually after 3 weeks vs untreated controls
From the text: as §2

[11] = test system: DIGSA Digitaria sanguinalis; test: as above; conditions: scored visually after 3 weeks vs untreated controls
From the text: as §2

SETVI Setaria viridis [12] = test: Post-emergence herbicidal action against harmful plants; conditions: one-leaf stage, assessed visually after about 3 weeks vs untreated controls
From the text: as §1

PHBPU Pharbitis purpurea [13] = test: as above; conditions: one-leaf stage, assessed visually after about 3 weeks vs untreated controls
From the text: as §1

MATIN Matricaria inodora [14] = test: as above; conditions: one-leaf stage, assessed visually after about 3 weeks vs untreated controls
From the text: as §1

[15] = test system: POLCO Polygonum convolvulus; test: as above; conditions: one-leaf stage, assessed visually after about 3 weeks vs untreated controls
From the text: as §1

[16] = test system: DIGSA Digitaria sanguinalis; test: as above; conditions: one-leaf stage, assessed visually after about 3 weeks vs untreated controls
From the text: as §1

LOLRI Lolium rigidum = test: Pre-emergence herbicidal action against harmful plants; conditions: scored visually after 3 weeks vs untreated controls
From the text: as §2

PHBPU Pharbitis purpurea [17] = test: as above; conditions: 80 g/ha, scored visually after 3 weeks vs untreated controls
From the text: as §2

Row | SMILES | Post-emergence action at 20 g/ha against ECHCG in % [1] [%] | Post-emergence action at 5 g/ha against AMARE in % [2] [%] | Post-emergence action at 20 g/ha against AMARE in % [2] [%] | Post-emergence action at 20 g/ha against ALOMY in % [3] [%] | Pre-emergence action at 80 g/ha against ECHCG in % [4] [%] | Pre-emergence action at 80 g/ha against SETVI in % (SETVI Setaria viridis [5]) [%] | Pre-emergence action at 20 g/ha against AMARE in % [6] [%] | Pre-emergence action at 80 g/ha against AMARE in % [6] [%] | Pre-emergence action at 80 g/ha against MATIN in % (MATIN Matricaria inodora [7]) [%] | Pre-emergence action at 80 g/ha against POLCO in % [8] [%] | Pre-emergence action at 80 g/ha against ABUTH in % [9] [%] | Pre-emergence action at 80 g/ha against AVEFA in % (AVEFA Avena fatua) [%] | Pre-emergence action at 80 g/ha against ALOMY in % [10] [%] | Pre-emergence action at 20 g/ha against DIGSA in % [11] [%] | Pre-emergence action at 80 g/ha against DIGSA in % [11] [%] | Post-emergence action at 20 g/ha against PHBPU in % (PHBPU Pharbitis purpurea [13]) [%] | Pre-emergence action at 20 g/ha against MATIN in % (MATIN Matricaria inodora [7]) [%] | Post-emergence action at 20 g/ha against MATIN in % (MATIN Matricaria inodora [14]) [%] | Post-emergence action at 20 g/ha against POLCO in % [15] [%] | Pre-emergence action at 20 g/ha against ABUTH in % [9] [%] | other results
1 | Cc1c(C(=O)Nc2nnnn2C)c(F)cc(C(F)(F)F)c1C(=O)NCC1CC1 [Example 1-384] | 80 | 80 | 90 | 80 | 100 | 90 | 100 | 100 | 80 | 90 | 100 | 80 | 80 | 100 | 100 | – | – | – | – | – | Post-emergence action at 5 g/ha against ECHCG in % ([1]; 5 g/ha): 80%
2 | CNC(=O)c1c(C(F)(F)F)cc(F)c(C(=O)Nc2nnnn2C)c1C [Example 1-92] | 80 | 80 | 90 | – | – | 100 | 90 | 100 | 90 | – | 100 | – | 80 | – | 100 | 80 | 90 | – | – | – | Post-emergence action at 20 g/ha against SETVI in % (SETVI Setaria viridis [12]): 80%; Pre-emergence action at 20 g/ha against SETVI in % (SETVI Setaria viridis [5]; 20 g/ha): 80%
3 | CCn1nnnc1NC(=O)c1cc(Cl)c(C(F)(F)F)c(C(=O)NC2CC2)c1C [Example 2-85] | – | 80 | 90 | 80 | 80 | 100 | 100 | 100 | 100 | 80 | 100 | 80 | 90 | 80 | 100 | 90 | 90 | 80 | 80 | 80 | Post-emergence action at 5 g/ha against PHBPU in % (PHBPU Pharbitis purpurea [13]; 5 g/ha): 80%; Post-emergence action at 20 g/ha against DIGSA in % [16]: 90%; Pre-emergence action at 80 g/ha against LOLRI in % (LOLRI Lolium rigidum): 80%; Pre-emergence action at 20 g/ha against ALOMY in % ([10]; 20 g/ha): 80%; Pre-emergence action at 80 g/ha against PHBPU in % (PHBPU Pharbitis purpurea [17]): 90%
4 | Cc1c(C(=O)Nc2nnnn2C)c(F)cc(C(F)(F)F)c1C(=O)N(C)C1CC1 [Example 1-97] | – | – | – | – | 90 | 80 | 100 | 100 | 100 | – | 100 | – | 80 | 80 | 100 | – | 90 | 80 | 100 | 100 | –
